“And” between values parts separate entries of the source, which are not always exact repeats. Equal values may be shown once.
Tests used:
Assay in all cases: EDTA salt dilution test, MIC/MBC
Format in all cases: cell-based
[1] = tested on: E. coli; conditions: three entries; for MBC, minimum concentration required to kill an entire population: Exhibit A1
Procedure: (§1) Protocol one: Broth dilutions:
(§2) Inoculate a 25 ml nutrient broth (Oxoid No2) in a sterile universal container with one of the following organisms; Pseudomonas aeruginosa, Proteus Mirabilis, E. coli, Klebsiella pneumoniae, Staph aureus, Coagulase negative staphylococci, Enterococcus faecalis or MRSA.
(§3) Incubate the broth at 37° C. overnight.
(§4) To make these concentrations put the EDTA needed for 10 mLs in only 9 mLs of broth in sterile universal containers, as this will be diluted further when the organisms are added.
(§5) Dilute the overnight broth cultures to 10^7 organisms/mL using more sterile nutrient broth.
(§6) Add 1 mL of this diluent to each of the EDTA series broths. This gives a final concentration of 10^6 organism/mL in the EDTA broths.
(§7) Incubate for 18 hours at 37° C.
(§8) Next day visually read the MIC's by observing the turbidity of the broths.
(§9) Plate out 1 uL of each dilution onto fresh blood agar plate and spread using a sterile plastic spreader.
(§10) Incubate overnight at 37° C.
(§11) Next day read the MBC's by performing colony counts.

[2] = tested on: Ent. faecalis; conditions: for MBC, minimum concentration required to kill an entire population: Exhibit A1; for MIC, minimum concentration required to inhibit growth: Exhibit A2
Procedure: as §1, §2, §3, §4, §5, §6, §7, §8, §9, §10, §11

[3] = tested on: Kleb. pnemoniae; conditions: two entries; for MBC, minimum concentration required to kill an entire population: Exhibit A1; for MIC, minimum concentration required to inhibit growth: Exhibit A2
Procedure: as §1, §2, §3, §4, §5, §6, §7, §8, §9, §10, §11

[4] = tested on: MRSA; conditions: five entries; for MBC, minimum concentration required to kill an entire population: Exhibit A1; for MIC, minimum concentration required to inhibit growth: Exhibit A2
Procedure: as §1, §2, §3, §4, §5, §6, §7, §8, §9, §10, §11

[5] = tested on: Proteus mirabilis; conditions: two entries; for MBC, minimum concentration required to kill an entire population: Exhibit A1; for MIC, minimum concentration required to inhibit growth: Exhibit A2
Procedure: as §1, §2, §3, §4, §5, §6, §7, §8, §9, §10, §11

[6] = tested on: Pseudomonas aeruginosa; conditions: two entries; for MBC, minimum concentration required to kill an entire population: Exhibit A1; for MIC, minimum concentration required to inhibit growth: Exhibit A2
Procedure: as §1, §2, §3, §4, §5, §6, §7, §8, §9, §10, §11

[7] = tested on: Pseudomonas sp.; conditions: for MBC, minimum concentration required to kill an entire population: Exhibit A1; for MIC, minimum concentration required to inhibit growth: Exhibit A2
Procedure: as §1, §2, §3, §4, §5, §6, §7, §8, §9, §10, §11

[8] = tested on: S. aureus; conditions: five entries; for MBC, minimum concentration required to kill an entire population: Exhibit A1; for MIC, minimum concentration required to inhibit growth: Exhibit A2
Procedure: as §1, §2, §3, §4, §5, §6, §7, §8, §9, §10, §11

[9] = tested on: S. capitis; conditions: two entries; for MBC, minimum concentration required to kill an entire population: Exhibit A1
Procedure: as §1, §2, §3, §4, §5, §6, §7, §8, §9, §10, §11

[10] = tested on: S. epidermidis; conditions: two entries; for MBC, minimum concentration required to kill an entire population: Exhibit A1; for MIC, minimum concentration required to inhibit growth: Exhibit A2
Procedure: as §1, §2, §3, §4, §5, §6, §7, §8, §9, §10, §11

[11] = tested on: S. lentus; conditions: for MBC, minimum concentration required to kill an entire population: Exhibit A1; for MIC, minimum concentration required to inhibit growth: Exhibit A2
Procedure: as §1, §2, §3, §4, §5, §6, §7, §8, §9, §10, §11

[12] = tested on: S. simulans; conditions: for MBC, minimum concentration required to kill an entire population: Exhibit A1; for MIC, minimum concentration required to inhibit growth: Exhibit A2
Procedure: as §1, §2, §3, §4, §5, §6, §7, §8, §9, §10, §11

[13] = tested on: S. xylosus; conditions: for MBC, minimum concentration required to kill an entire population: Exhibit A1; for MIC, minimum concentration required to inhibit growth: Exhibit A2
Procedure: as §1, §2, §3, §4, §5, §6, §7, §8, §9, §10, §11

[14] = tested on: Ent. faeculm; conditions: for MIC, minimum concentration required to inhibit growth: Ent. faecuim, Exhibit A2; for MBC, minimum concentration required to kill an entire population: Ent. faeculm, Exhibit A1
[15] = tested on: Kleb. oxytoca; conditions: for MBC, minimum concentration required to kill an entire population: Exhibit A1; for MIC, minimum concentration required to inhibit growth: Exhibit A2
[16] = tested on: Kleb. ornitholytica; conditions: for MBC, minimum concentration required to kill an entire population: Exhibit A1; for MIC, minimum concentration required to inhibit growth: Exhibit A2
[17] = tested on: Steno. maltophilia; conditions: for MBC, minimum concentration required to kill an entire population: Exhibit A1; for MIC, minimum concentration required to inhibit growth: Exhibit A2
[18] = tested on: Cornyeform amycolatum; conditions: for MBC, minimum concentration required to kill an entire population: Exhibit A1
[19] = tested on: Coryneform strait/amy; conditions: for MBC, minimum concentration required to kill an entire population: Exhibit A1; for MIC, minimum concentration required to inhibit growth: Exhibit A2
[20] = tested on: Proteus vulgaris; conditions: for MBC, minimum concentration required to kill an entire population: Exhibit A1; for MIC, minimum concentration required to inhibit growth: Exhibit A2
[21] = tested on: VRE; conditions: two entries
Procedure: as §1, §2, §3, §4, §5, §6, §7, §8, §9, §10, §11

[22] = tested on: Ent. cloacae; conditions: three entries

O=C([O-])CN(CCN(CC(=O)[O-])CC(=O)[O-])CC(=O)[O-].[Cu+2].[Na+].[Na+] [Cupric disodium EDTA]
MBC, minimum concentration required to kill an entire population [1]: >30 mg/mL
MBC, minimum concentration required to kill an entire population [2]: <0.5 mg/mL
MIC, minimum concentration required to inhibit growth [2]: <0.5 mg/mL
MBC, minimum concentration required to kill an entire population [3]: >30 mg/mL
MIC, minimum concentration required to inhibit growth [3]: >30 mg/mL
MBC, minimum concentration required to kill an entire population [4]: <0.5 mg/mL
MIC, minimum concentration required to inhibit growth [4]: <0.5 mg/mL
MBC, minimum concentration required to kill an entire population [5]: >30 mg/mL
MIC, minimum concentration required to inhibit growth [5]: 6 mg/mL
MBC, minimum concentration required to kill an entire population [6]: >30 mg/mL
MIC, minimum concentration required to inhibit growth [6]: >30 mg/mL
MBC, minimum concentration required to kill an entire population [7]: >30 mg/mL
MIC, minimum concentration required to inhibit growth [7]: >30 mg/mL
MBC, minimum concentration required to kill an entire population [8]: <0.5 mg/mL
MIC, minimum concentration required to inhibit growth [8]: <0.5 mg/mL
MBC, minimum concentration required to kill an entire population [9]: <0.5 mg/mL
MIC, minimum concentration required to inhibit growth ([9]; Exhibit A2): <0.5 mg/mL
MBC, minimum concentration required to kill an entire population [10]: <0.5 mg/mL
MIC, minimum concentration required to inhibit growth [10]: <0.5 mg/mL
MBC, minimum concentration required to kill an entire population [11]: <0.5 mg/mL
MIC, minimum concentration required to inhibit growth [11]: <0.5 mg/mL
MBC, minimum concentration required to kill an entire population [12]: <0.5 mg/mL
MIC, minimum concentration required to inhibit growth [12]: <0.5 mg/mL
MBC, minimum concentration required to kill an entire population [13]: <0.5 mg/mL
MIC, minimum concentration required to inhibit growth [13]: <0.5 mg/mL
MIC, minimum concentration required to inhibit growth [14]: <0.5 mg/mL
MBC, minimum concentration required to kill an entire population [14]: <0.5 mg/mL
MBC, minimum concentration required to kill an entire population [15]: >30 mg/mL
MIC, minimum concentration required to inhibit growth [15]: >30 mg/mL
MBC, minimum concentration required to kill an entire population [16]: >30 mg/mL
MIC, minimum concentration required to inhibit growth [16]: >30 mg/mL
MBC, minimum concentration required to kill an entire population [17]: >30 mg/mL
MIC, minimum concentration required to inhibit growth [17]: 6 mg/mL
MBC, minimum concentration required to kill an entire population [18]: <0.5 mg/mL
MBC, minimum concentration required to kill an entire population [19]: <0.5 mg/mL
MIC, minimum concentration required to inhibit growth [19]: <0.5 mg/mL
MBC, minimum concentration required to kill an entire population [20]: >30 mg/mL
MIC, minimum concentration required to inhibit growth [20]: >30 mg/mL

O=C([O-])CN(CCN(CC(=O)[O-])CC(=O)[O-])CC(=O)[O-].[Mg+2].[Na+].[Na+] [Magnesium disodium EDTA]
MBC, minimum concentration required to kill an entire population [1]: >30 mg/mL
MIC, minimum concentration required to inhibit growth ([1]; Exhibit A2): >30 mg/mL
MBC, minimum concentration required to kill an entire population [2]: >30 mg/mL
MIC, minimum concentration required to inhibit growth [2]: >30 mg/mL
MBC, minimum concentration required to kill an entire population [3]: >30 mg/mL
MIC, minimum concentration required to inhibit growth [3]: >30 mg/mL
MBC, minimum concentration required to kill an entire population [4]: >30 mg/mL
MIC, minimum concentration required to inhibit growth [4]: >30 mg/mL
MBC, minimum concentration required to kill an entire population [5]: >30 mg/mL
MIC, minimum concentration required to inhibit growth [5]: >30 mg/mL
MBC, minimum concentration required to kill an entire population [6]: >30 mg/mL
MIC, minimum concentration required to inhibit growth [6]: >30 mg/mL
MBC, minimum concentration required to kill an entire population [7]: >30 mg/mL
MIC, minimum concentration required to inhibit growth [7]: >30 mg/mL
MBC, minimum concentration required to kill an entire population [8]: >30 mg/mL
MIC, minimum concentration required to inhibit growth [8]: >30 mg/mL
MBC, minimum concentration required to kill an entire population [9]: >30 mg/mL
MBC, minimum concentration required to kill an entire population [10]: 30 mg/mL
MIC, minimum concentration required to inhibit growth [10]: 6 mg/mL
MBC, minimum concentration required to kill an entire population [11]: >30 mg/mL
MIC, minimum concentration required to inhibit growth [11]: 6 mg/mL
MBC, minimum concentration required to kill an entire population [12]: >30 mg/mL
MIC, minimum concentration required to inhibit growth [12]: 1.5 mg/mL
MBC, minimum concentration required to kill an entire population [13]: >30 mg/mL
MIC, minimum concentration required to inhibit growth [13]: 2 mg/mL
MBC, minimum concentration required to kill an entire population ([21]; Exhibit A1): >30 mg/mL
MIC, minimum concentration required to inhibit growth ([21]; Exhibit A2): 25 mg/mL and >30 mg/mL
MIC, minimum concentration required to inhibit growth [14]: 1.5 mg/mL
MBC, minimum concentration required to kill an entire population [14]: >30 mg/mL
MBC, minimum concentration required to kill an entire population [15]: >30 mg/mL
MIC, minimum concentration required to inhibit growth [15]: >30 mg/mL
MBC, minimum concentration required to kill an entire population [16]: >30 mg/mL
MIC, minimum concentration required to inhibit growth [16]: >30 mg/mL
MBC, minimum concentration required to kill an entire population ([22]; Exhibit A1): >30 mg/mL
MIC, minimum concentration required to inhibit growth ([22]; Exhibit A2): >30 mg/mL
MBC, minimum concentration required to kill an entire population [17]: >30 mg/mL
MIC, minimum concentration required to inhibit growth [17]: >30 mg/mL
MBC, minimum concentration required to kill an entire population [18]: 4 mg/mL
MIC, minimum concentration required to inhibit growth ([18]; Exhibit A2): <0.5 mg/mL
MBC, minimum concentration required to kill an entire population [19]: 4 mg/mL
MIC, minimum concentration required to inhibit growth [19]: <0.5 mg/mL
MBC, minimum concentration required to kill an entire population [20]: .30 mg/mL
MIC, minimum concentration required to inhibit growth [20]: >30 mg/mL
